Assay [1] concerns the target rat mGlu2 (Rattus norvegicus (Rat), UniProt P31421). In words: mGlu2 Ca2+ flux assay. Type of assay: cell-based. To be noted: NAM, glutamate EC80; >30,000 = no measurable activity. As for the experimental part: Gα15 HEK293 cells stably expressing rat mGlu2 were plated in black-walled, clear-bottomed, poly-D-lysine coated 384-well plates in 20 μL of assay medium (DMEM containing 10% dialyzed FBS, 20 mM HEPES, and 1 mM sodium pyruvate) at a density of 12K cells/well. The cells were grown overnight at 37° C. in the presence of 5% CO2. The next day, medium was removed and the cells incubated with 20 μL of […] Fluo-4, AM prepared as a 2.3 mM stock in DMSO and mixed in a 1:1 ratio with 10% (w/v) pluronic acid F-127 and diluted in assay buffer (Hank's balanced salt solution, 20 mM HEPES, and 2.5 mM probenecid) for 45 minutes at 37° C. Dye was removed, 20 μL of assay buffer was added, and the plate was incubated for 5 minutes at room temperature.
(§1) Ca^2+ flux was measured using the Functional Drug Screening System (FDSS7000, Hamamatsu, Japan). After establishment of a fluorescence baseline for about 3 seconds, the compounds of the present invention were added to the cells, and the response in cells was measured. 2.3 minutes later an EC20 concentration of the mGlu2 receptor agonist glutamate was added to the cells, and the response of the cells was measured for 1.9 minutes; an EC80 concentration of agonist was added and readings taken for an additional 1.7 minutes. All test compounds were dissolved and diluted to a concentration of 10 mM in 100% DMSO. Compounds were then serially diluted 1:3 in DMSO into 10 point concentration response curves, transferred to daughter plates, and further diluted into assay buffer to a 2× stock. Calcium fluorescence measures were recorded as fold over basal fluorescence; raw data was then normalized to the maximal response to glutamate.
(§2) The raw data file containing all time points was used as the data source in the analysis template. This was saved by the FDSS as a tab-delimited text file. Data were normalized using a static ratio function (F/F0) for each measurement of the total 360 values per well divided by each well's initial value. Data were then reduced to peak amplitudes (Max−Initial Min) using a time range that starts approximately 3 seconds prior to the glutamate EC80 addition and continues for approximately 90 seconds. This is sufficient time to capture the peak amplitude of the cellular calcium response. Individual amplitudes were expressed as % ECMax by multiplying each amplitude by 100 and then dividing the product by the mean of the amplitudes derived from the glutamate ECMax-treated wells. IC50 values for test compounds were generated by fitting the normalized values versus the log of the test compound concentration (in mol/L) using a 4 parameter logistic equation where none of the parameters were fixed. Each of the three values collected at each concentration of test compound were weighted evenly.
For orientation: Calcium flux is commonly read through the fluorescence of an indicator in the cells.

Assay [2] has as its target rat mGlu3 (Rattus norvegicus (Rat), UniProt P31422). Nature of the assay: mGlu3 Ca2+ flux assay. It counts as cell-based. To be noted: for IC50: NAM, glutamate EC80, >10,000 = decrease without plateau, >30,000 = no measurable activity; for remaining activity at 30 µM: response at 30 μM test compound as percentage of maximal response to glutamate, read-out: rat mGlu3 Glu max (%). The method, then:
Gα15/TREx cells stably expressing rat mGlu3 were plated in black-walled, clear-bottomed, poly-D-lysine coated 384-well plates in 20 μL of assay medium (DMEM containing 10% dialyzed FBS, 20 mM HEPES, 25 ng/mL tetracycline, 100 units/mL penicillin/streptomycin plus 250 ng/mL Fungizone, and 1 mM sodium pyruvate) at a density of 15K cells/well. The cells were grown overnight at 37° C. in the presence of 5% CO2. […] Dye was removed, 20 μL of assay buffer was added, and the plate was incubated for 10 minutes at room temperature.
as §1, with “mGlu3” for “mGlu2”
as §2, with “% EMax” for “% ECMax”, “wells. EC50” for “wells. IC50”

rat mGlu3, sequence (P31422 23-879): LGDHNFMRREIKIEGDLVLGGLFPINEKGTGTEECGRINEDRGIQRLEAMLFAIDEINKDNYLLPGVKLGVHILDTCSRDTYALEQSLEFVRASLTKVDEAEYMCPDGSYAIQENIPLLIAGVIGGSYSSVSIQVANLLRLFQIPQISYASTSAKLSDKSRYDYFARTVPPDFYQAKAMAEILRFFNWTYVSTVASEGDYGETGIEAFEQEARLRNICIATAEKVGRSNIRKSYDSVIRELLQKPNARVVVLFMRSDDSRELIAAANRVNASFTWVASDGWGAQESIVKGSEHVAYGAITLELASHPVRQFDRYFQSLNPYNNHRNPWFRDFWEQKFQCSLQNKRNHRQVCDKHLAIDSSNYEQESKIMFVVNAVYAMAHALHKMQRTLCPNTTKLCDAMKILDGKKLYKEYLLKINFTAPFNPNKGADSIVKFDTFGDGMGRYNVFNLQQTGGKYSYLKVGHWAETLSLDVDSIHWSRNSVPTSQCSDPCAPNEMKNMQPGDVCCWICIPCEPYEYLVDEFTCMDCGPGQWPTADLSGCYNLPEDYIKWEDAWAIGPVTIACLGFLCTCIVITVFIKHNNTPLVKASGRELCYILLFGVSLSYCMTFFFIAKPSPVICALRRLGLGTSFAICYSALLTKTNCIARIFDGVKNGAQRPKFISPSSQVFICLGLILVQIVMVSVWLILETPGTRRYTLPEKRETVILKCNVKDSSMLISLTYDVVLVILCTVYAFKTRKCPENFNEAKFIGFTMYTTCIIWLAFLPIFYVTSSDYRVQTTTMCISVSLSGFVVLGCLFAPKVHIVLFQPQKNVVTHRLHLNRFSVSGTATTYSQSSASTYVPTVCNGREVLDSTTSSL
rat mGlu2, sequence (P31421 19-872): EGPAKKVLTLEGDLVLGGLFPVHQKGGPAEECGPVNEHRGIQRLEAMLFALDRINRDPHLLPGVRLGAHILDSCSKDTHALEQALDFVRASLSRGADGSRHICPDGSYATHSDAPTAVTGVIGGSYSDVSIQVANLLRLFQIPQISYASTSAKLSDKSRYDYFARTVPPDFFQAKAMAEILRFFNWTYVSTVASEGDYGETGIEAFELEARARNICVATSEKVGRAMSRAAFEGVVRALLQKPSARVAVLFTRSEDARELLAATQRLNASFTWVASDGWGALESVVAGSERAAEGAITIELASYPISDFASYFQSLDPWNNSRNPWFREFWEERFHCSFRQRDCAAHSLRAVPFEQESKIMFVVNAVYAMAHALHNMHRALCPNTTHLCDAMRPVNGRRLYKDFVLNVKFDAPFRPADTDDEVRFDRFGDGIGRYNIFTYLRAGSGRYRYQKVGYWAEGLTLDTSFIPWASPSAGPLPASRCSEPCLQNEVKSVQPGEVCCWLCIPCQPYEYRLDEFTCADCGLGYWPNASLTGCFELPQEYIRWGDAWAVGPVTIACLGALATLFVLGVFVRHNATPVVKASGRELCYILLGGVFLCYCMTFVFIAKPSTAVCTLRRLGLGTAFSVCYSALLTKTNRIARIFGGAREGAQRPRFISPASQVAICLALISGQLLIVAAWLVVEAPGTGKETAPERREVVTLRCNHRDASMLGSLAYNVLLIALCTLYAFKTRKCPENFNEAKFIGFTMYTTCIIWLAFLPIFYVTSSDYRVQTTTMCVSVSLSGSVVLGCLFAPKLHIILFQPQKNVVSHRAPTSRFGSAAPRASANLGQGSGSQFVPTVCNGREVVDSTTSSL

`N#Cc1cccc(OCCOc2ccn(-c3ccc(F)cc3)c(=O)c2)n1` [Compound 59, 6-(2-((1-(4-fluorophenyl)-2-oxo-1,2-dihydropyridin-4-yl)oxy)ethoxy)picolinonitrile]: the IC50 (commonly the concentration at which inhibition is half-maximal) in assay [1] is greater than 30 µM. Besides, in assay [2], the IC50 is greater than 10 µM and the remaining activity at 30 µM is 35.9%.

The molecule `O=c1cc(OCCOc2cccc(Cl)n2)ccn1-c1ccc(F)cc1` [Compound 53, 4-(2-((6-chloropyridin-2-yl)oxy)ethoxy)-1-(4-fluorophenyl)pyridin-2(1H)-one] showed an IC50 in assay [1] greater than 30 µM. Besides, in assay [2], the IC50 was 4.27 µM and the remaining activity at 30 µM was -1.66%.

As for `O=c1cc(OCCOc2ccccc2)ccn1-c1cccc(F)n1` [Compound 12, 6′-fluoro-4-(2-phenoxyethoxy)-2H-[1,2′-bipyridin]-2-one], in assay [1], the concentration for half-maximal inhibition (IC50) was greater than 30 µM. In assay [2], the IC50 is greater than 10 µM and the remaining activity at 30 µM came out at 33.2%.

Consider `O=c1cc(OCCOc2c(F)cccc2F)ccn1-c1ccc(F)cc1` [Compound 36, 4-(2-(2,6-difluorophenoxy)ethoxy)-1-(4-fluorophenyl)pyridin-2(1H)-one], for which, in assay [1], the IC50 is greater than 30 µM. For the same molecule, in assay [2], the IC50 turned out to be 3.18 µM and the remaining activity at 30 µM was -1.16%.

Molecule `N#Cc1cncc(-n2ccc(OCCOc3ccccc3)cc2=O)c1` [Compound 26, 2-oxo-4-(2-phenoxyethoxy)-2H-[1,3′-bipyridine]-5′-carbonitrile] showed an IC50 in assay [1] greater than 30 µM. In addition, in assay [2], half-maximal inhibition (IC50) was put at 3.41 µM and the remaining activity at 30 µM was -5.24%.

In assay [1], `CN(CCOc1ccn(-c2ccc(F)cc2)c(=O)c1)c1ccccc1` [Compound 4, 1-(4-fluorophenyl)-4-(2-(methyl(phenyl)amino)ethoxy)pyridin-2(1H)-one] came in with an IC50 greater than 30 µM. In assay [2], inhibition was half-maximal at 4 µM (IC50) and the remaining activity at 30 µM turned out to be 0%.

With `N#Cc1ccc(OCCOc2ccn(-c3ccc(F)cc3)c(=O)c2)cc1` [Compound 42, 4-(2-((1-(4-fluorophenyl)-2-oxo-1,2-dihydropyridin-4-yl)oxy)ethoxy)benzonitrile], the IC50 is greater than 30 µM in assay [1] and 1.13 µM in assay [2]. In addition, the remaining activity at 30 µM in assay [2] was determined as 0.74%.

For the molecule `O=c1cc(OCCOc2ccccc2)cnn1-c1ccc(F)cc1` [Compound 29, 2-(4-Fluorophenyl)-5-(2-phenoxyethoxy)pyridazin-3(2H)-one], in assay [1], the half-inhibitory concentration (IC50) was greater than 30 µM. In assay [2], 3.87 µM corresponded to half-maximal inhibition (IC50) and the remaining activity at 30 µM amounted to 5.86%.

On to `O=c1cc(OCCOc2cccnc2F)ccn1-c1ccc(F)cc1` [Compound 40, 1-(4-fluorophenyl)-4-(2-((2-fluoropyridin-3-yl)oxy)ethoxy)pyridin-2(1H)-one], for which, in assay [1], the IC50 was greater than 30 µM. Also, in assay [2], half-maximal inhibition (IC50) required 4.74 µM and the remaining activity at 30 µM is -4.22%.

In turn, `O=c1cc(OCCOc2ccc(F)cc2F)ccn1-c1ccc(F)cc1` [Compound 34, 4-(2-(2,4-difluorophenoxy)ethoxy)-1-(4-fluorophenyl)pyridin-2(1H)-one] yielded an IC50 in assay [1] greater than 30 µM. Also, in assay [2], the IC50 came out at 1.45 µM and the remaining activity at 30 µM amounted to 1.32%.

Take `O=c1cc(OCCOc2ccccc2Cl)ccn1-c1ccc(F)cc1` [Compound 37, 4-(2-(2-chlorophenoxy)ethoxy)-1-(4-fluorophenyl)pyridin-2(1H)-one]: the results for the IC50 in assay [1] and in assay [2] were greater than 30 µM and 1.84 µM, respectively. In addition, in assay [2], the remaining activity at 30 µM is 2.05%.

On to `N#Cc1ccc(OCCOc2ccn(-c3ccc(F)cc3)c(=O)c2)nc1` [Compound 58, 6-(2-((1-(4-fluorophenyl)-2-oxo-1,2-dihydropyridin-4-yl)oxy)ethoxy)nicotinonitrile], for which, in assay [1], the IC50 was greater than 30 µM. In assay [2], the IC50 is 1.38 µM and the remaining activity at 30 µM turned out to be 1.06%.

In the case of `O=c1nc(OCCOc2ccccc2)ccn1-c1ccc(F)cn1` [Compound 16, 1-(5-fluoropyridin-2-yl)-4-(2-phenoxyethoxy)pyrimidin-2(1H)-one], the IC50 in assay [1] was greater than 30 µM. Also, in assay [2], the IC50 is greater than 10 µM and the remaining activity at 30 µM is 23.9%.

In the case of `O=c1cc(OCCOc2ccccc2)ccn1-c1ccc(F)nc1` [Compound 25, 6′-fluoro-4-(2-phenoxyethoxy)-2H-[1,3′-bipyridin]-2-one], the figures for the IC50 in assay [1] and in assay [2] were greater than 30 µM and 6.75 µM, respectively. The remaining activity at 30 µM in assay [2] was -2.95%.

`O=c1cc(OCCOc2cccnc2Cl)ccn1-c1ccc(F)cc1` [Compound 48, 4-(2-((2-chloropyridin-3-yl)oxy)ethoxy)-1-(4-fluorophenyl)pyridin-2(1H)-one] showed a half-inhibitory concentration (IC50) in assay [1] greater than 30 µM. Further, in assay [2], 5.56 µM corresponded to half-maximal inhibition (IC50) and the remaining activity at 30 µM was -2.79%.

Take `N#Cc1cccnc1OCCOc1ccn(-c2ccc(F)cc2)c(=O)c1` [Compound 56, 2-(2-((1-(4-fluorophenyl)-2-oxo-1,2-dihydropyridin-4-yl)oxy)ethoxy)nicotinonitrile]: the IC50 in assay [1] was greater than 30 µM; in assay [2], greater than 10 µM. Further, the remaining activity at 30 µM in assay [2] came to 18%.

In assay [1], `N#Cc1ccc(-n2ccc(OCCOc3ccccc3)cc2=O)cc1` [Compound 24, 4-(2-oxo-4-(2-phenoxyethoxy)pyridin-1(2H)-yl)benzonitrile] registered an IC50 greater than 30 µM. Moreover, in assay [2], the IC50 worked out at 3.17 µM and the remaining activity at 30 µM amounted to 0.49%.

On to `O=c1cc(OCCOc2cccnc2)ccn1-c1ccc(F)cc1` [Compound 44, 1-(4-fluorophenyl)-4-(2-(pyridin-3-yloxy)ethoxy)pyridin-2(1H)-one], for which the IC50 in assay [1] is greater than 30 µM. Moreover, in assay [2], 10 µM corresponded to half-maximal inhibition (IC50) and the remaining activity at 30 µM was determined as 1.83%.

`O=c1cc(OCCOc2cncc(Cl)c2)ccn1-c1ccc(F)cc1` [Compound 46, 4-(2-((5-chloropyridin-3-yl)oxy)ethoxy)-1-(4-fluorophenyl)pyridin-2(1H)-one] displayed an IC50 in assay [1] greater than 30 µM. In addition, in assay [2], the IC50 came out at 2.79 µM and the remaining activity at 30 µM turned out to be 0.41%.

In turn, `O=c1cc(OCCOc2ccccc2)ccn1-c1ccccc1F` [Compound 10, 1-(2-Fluorophenyl)-4-(2-phenoxyethoxy)pyridin-2-one] displayed an IC50 in assay [1] greater than 30 µM. In addition, in assay [2], the concentration for half-maximal inhibition (IC50) was determined as 3.93 µM and the remaining activity at 30 µM was 1.16%.

Take `O=c1cc(OCCCc2ccccc2)ccn1-c1ccc(F)cc1` [Compound 2, 1-(4-fluorophenyl)-4-(3-phenylpropoxy)pyridin-2(1H)-one]: the IC50 in assay [1] is greater than 30 µM; in assay [2], 5.41 µM. Besides, the remaining activity at 30 µM in assay [2] worked out at 1.95%.

As to `O=c1cc(OCCOc2ccccc2)ccn1-c1ccncc1` [Compound 13, 4-(2-phenoxyethoxy)-2H-[1,4′-bipyridin]-2-one], the IC50 in assay [1] and in assay [2] was greater than 30 µM in each case.

The record behind these values is patent publication US10399948B2, “Negative allosteric modulators of metabotropic glutamate receptor 3” (Vanderbilt University, priority 2015, dated 2019).
